# Reference: patent US20260144788A1, “COMPOUND FOR SHP2 PROTEIN DEGRADATION AND MEDICAL USES THEREOF” (UBIX THERAPEUTICS, INC., priority 2022, published 2026)
# Molecular target: T1, SHP2 protein (Homo sapiens, UniProt Q06124)
# T1 sequence (Q06124 1-593): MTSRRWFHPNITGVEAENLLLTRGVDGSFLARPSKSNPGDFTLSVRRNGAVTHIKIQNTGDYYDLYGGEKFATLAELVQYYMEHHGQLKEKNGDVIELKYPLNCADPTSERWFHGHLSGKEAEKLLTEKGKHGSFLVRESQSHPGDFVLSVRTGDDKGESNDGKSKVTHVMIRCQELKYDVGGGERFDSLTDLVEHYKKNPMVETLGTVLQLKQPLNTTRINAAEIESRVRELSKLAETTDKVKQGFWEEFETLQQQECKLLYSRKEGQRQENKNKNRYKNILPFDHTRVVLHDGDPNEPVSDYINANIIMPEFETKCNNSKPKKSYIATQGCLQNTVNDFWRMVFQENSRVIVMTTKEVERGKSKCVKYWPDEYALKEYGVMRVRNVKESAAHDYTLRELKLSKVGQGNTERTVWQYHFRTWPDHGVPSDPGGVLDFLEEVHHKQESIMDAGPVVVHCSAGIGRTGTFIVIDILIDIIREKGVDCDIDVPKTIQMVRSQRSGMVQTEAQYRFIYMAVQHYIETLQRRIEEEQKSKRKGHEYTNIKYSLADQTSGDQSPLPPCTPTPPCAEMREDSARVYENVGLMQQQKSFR
# Test: Measurement of SHP2 protein degradation in MV-4-11 cells (western blotting)
# Assay type: cell-based
# Design: endogenous in cells
# Settings: harvested after 24 hours
# In short: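 MV-4-11 cells in IMDM/5% FBS were exposed to compound at final 0.01, 0.1, 1 μM or 0.001, 0.01, 0.1 μM for 24 h, DMSO as negative control. BCA-normalised lysates were immunoblotted for SHP2 with GAPDH as loading control, read on LI-COR Odyssey.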
SHP2% degradation (0.01 μM) [%],SHP2% degradation (0.1 μM) [%],Structure (SMILES)
−22.1,95.7,"Cc1ncsc1-c1ccc(CNC(=O)[C@@H]2C[C@@H](O)CN2C(=O)[C@@H](NC(=O)C2(F)CC2)C(C)(C)C)c(OC2CCN(C(=O)C3(C)CCN(c4nccc(Sc5cnc(N6CCC(C)(CN)CC6)cn5)c4Cl)CC3)CC2)c1 [Example 68, (2S,4R)—N-(2-((1-(1-(4-((5-(4-(aminomethyl)-4-methylpiperidin-1-yl)pyrazin-2-yl)thio)-3-chloropyridin-2-yl)-4-methylpiperidine-4-carbonyl)piperidin-4-yl)oxy)-4-(4-methylthiazol-5-yl)benzyl)-1-((S)-2-(1-fluorocyclopropane-1-carboxamido)-3,3-dimethylbutanoyl)-4-hydroxypyrrolidine-2-carboxamide]"
19.9,99.8,"Cc1ncsc1-c1ccc(CNC(=O)[C@@H]2C[C@@H](O)CN2C(=O)[C@@H](NC(=O)C2(F)CC2)C(C)(C)C)c(OC2CCN(C(=O)C3(F)CCN(c4nccc(Sc5cnc(N6CCC(C)(CN)CC6)cn5)c4Cl)CC3)CC2)c1 [Example 69, (2S,4R)—N-(2-((1-(1-(4-((5-(4-(aminomethyl)-4-methylpiperidin-1-yl)pyrazin-2-yl)thio)-3-chloropyridin-2-yl)-4-fluoropiperidine-4-carbonyl)piperidin-4-yl)oxy)-4-(4-methylthiazol-5-yl)benzyl)-1-((S)-2-(1-fluorocyclopropane-1-carboxamido)-3,3-dimethylbutanoyl)-4-hydroxypyrrolidine-2-carboxamide]"
84.5,99.9,"Cc1ncsc1-c1ccc(CNC(=O)[C@@H]2C[C@@H](O)CN2C(=O)[C@@H](NC(=O)C2(F)CC2)C(C)(C)C)c(OC2CCN(C(=O)C3(O)CCN(c4nccc(Sc5cnc(N6CCC(C)(CN)CC6)cn5)c4Cl)CC3)CC2)c1 [Example 70, (2S,4R)—N-(2-((1-(1-(4-((5-(4-(aminomethyl)-4-methylpiperidin-1-yl)pyrazin-2-yl)thio)-3-chloropyridin-2-yl)-4-hydroxypiperidine-4-carbonyl)piperidin-4-yl)oxy)-4-(4-methylthiazol-5-yl)benzyl)-1-((S)-2-(1-fluorocyclopropane-1-carboxamido)-3,3-dimethylbutanoyl)-4-hydroxypyrrolidine-2-carboxamide]"
91.5,99.8,"Cc1ncsc1-c1ccc(CNC(=O)[C@@H]2C[C@@H](O)CN2C(=O)[C@@H](NC(=O)C2(F)CC2)C(C)(C)C)c(OC2CCN(C(=O)CC3(O)CCN(c4nccc(Sc5cnc(N6CCC(C)(CN)CC6)cn5)c4Cl)CC3)CC2)c1 [Example 72, (2S,4R)—N-(2-((1-(2-(1-(4-((5-(4-(aminomethyl)-4-methylpiperidin-1-yl)pyrazin-2-yl)thio)-3-chloropyridin-2-yl)-4-hydroxypiperidin-4-yl)acetyl)piperidin-4-yl)oxy)-4-(4-methylthiazol-5-yl)benzyl)-1-((S)-2-(1-fluorocyclopropane-1-carboxamido)-3,3-dimethylbutanoyl)-4-hydroxypyrrolidine-2-carboxamide]"

# Further lines, the compound ahead of its results:
Structure (SMILES),SHP2% degradation (0.01 μM) [%],SHP2% degradation (0.1 μM) [%]
"Cc1ncsc1-c1ccc(CNC(=O)[C@@H]2C[C@@H](O)CN2C(=O)[C@@H](NC(=O)C2(F)CC2)C(C)(C)C)c(OC2CCN(C(=O)[C@H]3CC[C@H](Nc4nccc(Sc5cnc(N6CCC(C)(CN)CC6)cn5)c4Cl)CC3)CC2)c1 [Example 62, (2S,4R)—N-(2-((1-((1R,4S)-4-((4-((5-(4-(aminomethyl)-4-methylpiperidin-1-yl)pyrazin-2-yl)thio)-3-chloropyridin-2-yl)amino)cyclohexanecarbonyl)piperidin-4-yl)oxy)-4-(4-methylthiazol-5-yl)benzyl)-1-((S)-2-(1-fluorocyclopropane-1-carboxamido)-3,3-dimethylbutanoyl)-4-hydroxypyrrolidine-2-carboxamide]",75.6,98.9
"Cc1ncsc1-c1ccc(CNC(=O)[C@@H]2C[C@@H](O)CN2C(=O)[C@@H](NC(=O)C2(F)CC2)C(C)(C)C)c(OC2CCN(C(=O)C3CCN(c4nccc(Sc5cnc(N6CCC(C)(CN)CC6)cn5)c4Cl)CC3)CC2)c1 [Example 65, (2S,4R)—N-(2-((1-(1-(4-((5-(4-(aminomethyl)-4-methylpiperidin-1-yl)pyrazin-2-yl)thio)-3-chloropyridin-2-yl)piperidine-4-carbonyl)piperidin-4-yl)oxy)-4-(4-methylthiazol-5-yl)benzyl)-1-((S)-2-(1-fluorocyclopropane-1-carboxamido)-3,3-dimethylbutanoyl)-4-hydroxypyrrolidine-2-carboxamide]",85.2,98.1
"Cc1ncsc1-c1ccc(CNC(=O)[C@@H]2C[C@@H](O)CN2C(=O)[C@@H](NC(=O)C2(F)CC2)C(C)(C)C)c(OC2CCN(C(=O)C3CCN(c4nccc(Sc5cnc(N6CCC(C)(N)CC6)cn5)c4Cl)CC3)CC2)c1 [Example 66, (2S,4R)—N-(2-((1-(1-(4-((5-(4-amino-4-methylpiperidin-1-yl)pyrazin-2-yl)thio)-3-chloropyridin-2-yl)piperidine-4-carbonyl)piperidin-4-yl)oxy)-4-(4-methylthiazol-5-yl)benzyl)-1-((S)-2-(1-fluorocyclopropane-1-carboxamido)-3,3-dimethylbutanoyl)-4-hydroxypyrrolidine-2-carboxamide]",78.6,99.6
"Cc1ncsc1-c1ccc(CNC(=O)[C@@H]2C[C@@H](O)CN2C(=O)[C@@H](NC(=O)C2(F)CC2)C(C)(C)C)c(OC2CCN(C(=O)CC3CCN(c4nccc(Sc5cnc(N6CCC(C)(CN)CC6)cn5)c4Cl)CC3)CC2)c1 [Example 71, (2S,4R)—N-(2-((1-(2-(1-(4-((5-(4-(aminomethyl)-4-methylpiperidin-1-yl)pyrazin-2-yl)thio)-3-chloropyridin-2-yl)piperidin-4-yl)acetyl)piperidin-4-yl)oxy)-4-(4-methylthiazol-5-yl)benzyl)-1-((S)-2-(1-fluorocyclopropane-1-carboxamido)-3,3-dimethylbutanoyl)-4-hydroxypyrrolidine-2-carboxamide]",60.0,99.4
"Cc1ncsc1-c1ccc(CNC(=O)[C@@H]2C[C@@H](O)CN2C(=O)[C@@H](NC(=O)C2(F)CC2)C(C)(C)C)c(OC2CN(C(=O)C3CCN(c4nccc(Sc5cnc(N6CCC(C)(CN)CC6)cn5)c4Cl)CC3)C2)c1 [Example 73, (2S,4R)—N-(2-((1-(1-(4-((5-(4-(aminomethyl)-4-methylpiperidin-1-yl)pyrazin-2-yl)thio)-3-chloropyridin-2-yl)piperidine-4-carbonyl)azetidin-3-yl)oxy)-4-(4-methylthiazol-5-yl)benzyl)-1-((S)-2-(1-fluorocyclopropane-1-carboxamido)-3,3-dimethylbutanoyl)-4-hydroxypyrrolidine-2-carboxamide]",65.8,97.7
"CC(=O)N[C@H](C(=O)N1C[C@H](O)C[C@H]1C(=O)NCc1ccc(-c2scnc2C)cc1OC1CCN(C(=O)[C@H]2C[C@@H](Nc3nccc(Sc4cnc(N5CCC(C)(CN)CC5)cn4)c3Cl)C2)CC1)C(C)(C)C [Example 74, (2S,4R)-1-((S)-2-acetamido-3,3-dimethylbutanoyl)-N-(2-((1-((1S,3R)-3-((4-((5-(4-(aminomethyl)-4-methylpiperidin-1-yl)pyrazin-2-yl)thio)-3-chloropyridin-2-yl)amino)cyclobutanecarbonyl)piperidin-4-yl)oxy)-4-(4-methylthiazol-5-yl)benzyl)-4-hydroxypyrrolidine-2-carboxamide]",97.0,99.8
"CC(=O)N[C@H](C(=O)N1C[C@H](O)C[C@H]1C(=O)NCc1ccc(-c2scnc2C)cc1OC1CCN(C(=O)C2CCN(c3nccc(Sc4cnc(N5CCC(C)(CN)CC5)cn4)c3Cl)CC2)CC1)C(C)(C)C [Example 75, (2S,4R)-1-((S)-2-acetamido-3,3-dimethylbutanoyl)-N-(2-((1-(1-(4-((5-(4-(aminomethyl)-4-methylpiperidin-1-yl)pyrazin-2-yl)thio)-3-chloropyridin-2-yl)piperidine-4-carbonyl)piperidin-4-yl)oxy)-4-(4-methylthiazol-5-yl)benzyl)-4-hydroxypyrrolidine-2-carboxamide]",97.0,99.3
"Cc1ncsc1-c1ccc([C@H](C)NC(=O)[C@@H]2C[C@@H](O)CN2C(=O)[C@@H](NC(=O)C2(F)CC2)C(C)(C)C)c(OC2CCN(C(=O)C3CCN(c4nccc(Sc5cnc(N6CCC(C)(CN)CC6)cn5)c4Cl)CC3)CC2)c1 [Example 86, (2S,4R)—N—((S)-1-(2-((1-(1-(4-((5-(4-(aminomethyl)-4-methylpiperidin-1-yl)pyrazin-2-yl)thio)-3-chloropyridin-2-yl)piperidine-4-carbonyl)piperidin-4-yl)oxy)-4-(4-methylthiazol-5-yl)phenyl)ethyl)-1-((S)-2-(1-fluorocyclopropane-1-carboxamido)-3,3-dimethylbutanoyl)-4-hydroxypyrrolidine-2-carboxamide]",81.9,99.9
